Laboratory results: US4837228A, “Antiinflammatory and antimicrobial compounds and compositions” (The University of Mississippi, priority 1982, dated 1989)
Values after ≈ are worked out from the molar mass of the structure shown. Values joined by “and” are separate entries in the source; they are usually repeats but may differ in a detail not shown here. Equal values may be shown once. Read-outs that look alike come from different tables or passages of the source.

Experiments:
[1] = test system: Trichophyton mentagrophytes; assay: MIC, two-fold (broth) serial dilution, T. mentagrophytes; type: cell-based
Procedure: (§1) Both qualitative and quantitative screens were performed. Qualitative screening was accomplished using the agar well diffusion assay technque while quantitative screening was accomplished by the two-fold (broth) serial dilution method to determine the minimum inhibitory concentration (MIC). Innoculation was accomplished with one loop-full of a 1:10 dilution of the 24-hour-old broth culture, (fungal cultures and M.smegmatis more often required 48 to 72 hours of incubation) of the test organisms in sterile water. Streptomycin sulfate was used as a positive control for antibacterial activity while amphitericin B was used as an antifungal positive control. Organisms utilized in the screens included gram-positive, gram-negative, and acid-fast bacteria as well as different types of fungi. […] An intermediate type activity is seen where R is hydrogen. However, where R is lengthened up to C15 a decrease in activity was noted. Total saturation of the two double bonds in the compounds having a methyl side chain lead, in most cases, to an increase in both antifungal and antibacterial activity.

[2] = test system: Saccharomyces cerevisiae; assay: MIC, two-fold (broth) serial dilution, S. cerevisiae; type: cell-based
Procedure: as §1

[3] = test system: Mycobacterium smegmatis; assay: MIC, two-fold (broth) serial dilution, M. smegmatis; type: cell-based; conditions: 24 hr
Procedure: as §1

[4] = test system: Candida albicans; assay: MIC, two-fold (broth) serial dilution, C. albicans; type: cell-based
Procedure: as §1

[5] = test system: carrageenan-induced rat paw edema; assay: carrageenan-induced rat paw edema test, intraperitoneal dosing; type: in vivo; conditions: Table 5, * P = 0.01
Procedure: Two methods were used to assess the antiinflammatory activity of the compounds of the invention: the carrageenan-induced rat paw edema test and, the erythrocyte membrane stabilization assay.
In the Rat Paw Edema Test, the rats utilized were divided into test groups of six to eight animals, weighed and marked so that individual rats could be identified; one hour before testing all rats were given a 700 mg/kg intraperitoneal injection of ethyl urethane in distilled water to render them tractable during testing. A circle was drawn, with a felt-tipped marker, around the hind leg of each rat just above the ankle, and each rat was dosed with a test or control compound by intraperitoneal injection. Negative control groups received the vehicle; while positive control groups received a dose of phenylbutazone (PBZ) as shown in Table II. Test compounds were given at doses of 60, 120, 240 and 480 mg/kg. The positive controls were given at 120 mg/kg and 60 mg/kg. Phenylbutazone was prepared for injection by suspending it in normal saline using Tween 60. The rats were then held in group cages for 30 minutes. The volume of the left hind paw was measured using a mercury displacement pleysmograph. The paw is dipped into the mercury until the mercury touches the line above the ankle. Mercury is then withdrawn until the mercury returns to its original level. The amount of mercury removed is measured in milliliters (ml). The mercury can be measured accurately to 0.01 ml. This left hind paw was then injected with 0.1 ml of a 5% w/v solution of viscous carageenan in normal saline. The injection was given between the metatarsal bones using a 27 gauge needle, and the rats then held in group cages for 3 hours. The volume of the left hind paws was measured again in the pleysmograph. The results were computed in the following manner:
a. A mean is taken for both the pre-injection and post-injection paw volume of each test group.
b. The mean difference in volume (MDV) for each test group is computed by subtracting the pre-injection means from the post-injection mean.
c. The percent of control is computed for each test [formula] The percent of control is used to compare the efficacy of the various drug treatments.
d. The percent increase in paw volume is calculated for each group as: [formula] The percent increase is used to compare the amount of edma observed in one experiment to the amount of edma observed in other experiments.
The data from the rat paw test were further analyzed using a one-way analysis of varience (ANOVA) and Duncan's New Multiple Range Test. The pre-injection score of each animal was subtracted from his post-injection score and an analysis of the different scores were conducted.
The procedure described above was followed. […] The vehicle control used was Tween 60, Arlacel and distilled water prepared without CBC(II).

[6] = test system: Trichophyton mentagrophytes; assay: agar well diffusion assay, T. mentagrophytes; type: cell-based; conditions: for agar well diffusion result in words: one entry across 48 hr and 72 hr; for width of inhibition zone: from edge of agar well
Procedure: as §1

[7] = test system: Staphylococcus aureus; assay: MIC, two-fold (broth) serial dilution, S. aureus; type: cell-based; conditions: 48 hr
Procedure: as §1

[8] = test system: Pseudomonas aeruginosa; assay: agar well diffusion assay, Ps. aeruginosa; type: cell-based; conditions: from edge of agar well
Procedure: as §1

[9] = test system: Bacillus subtilis; assay: agar well diffusion assay, B. subtilis; type: cell-based; conditions: from edge of agar well
Procedure: as §1

[10] = test system: Escherichia coli; assay: agar well diffusion assay, E. coli; type: cell-based; conditions: from edge of agar well
Procedure: as §1

[11] = test system: Aspergillus niger; assay: agar well diffusion assay, A. niger; type: cell-based; conditions: from edge of agar well
Procedure: as §1

[12] = test system: Staphylococcus aureus; assay: agar well diffusion assay, S. aureus; type: cell-based; conditions: from edge of agar well
Procedure: as §1

[13] = test system: Mycobacterium smegmatis; assay: agar well diffusion assay, M. smegmatis; type: cell-based; conditions: from edge of agar well
Procedure: as §1

[14] = test system: Saccharomyces cerevisiae; assay: agar well diffusion assay, S. cerevisiae; type: cell-based; conditions: from edge of agar well
Procedure: as §1

[15] = test system: Bacillus subtilis; assay: MIC, two-fold (broth) serial dilution, B. subtilis; type: cell-based
Procedure: as §1

[16] = test system: Candida albicans; assay: agar well diffusion assay, C. albicans; type: cell-based; conditions: from edge of agar well
Procedure: as §1

[17] = test system: erythrocyte (heat-induced hemolysis); assay: erythrocyte membrane stabilization assay (heat-induced erythrocyte hemolysis); type: cell-based; conditions: Erythrocyte; for inhibition at 250 µM: 2.5 × 10^-4 M
Procedure: The published procedure (Proc. Soc. Exp. Biol. Med. 1967; 125; 837-842 Brow et al) for in vitro assay for antiinflammatory agents based on stabilization of erythrocytes was used. All compounds were prepared for administration by dissolving in physiologic saline or suspending in 2% ethanol in saline and the pH adjusted to 7.4 The concentrations tested in one series are given in Table 8. Aspirin (ASA) and phenylbutazone were used as positive controls for comparison of activity. Tests using this procedure were successfully and repeatedly using either 40% or 20% RBC suspensions.

“2-methyl-2(4'-methyl-pent-3'-enyl)-5-hydroxy-7-pent-dec-8'-enyl chromene [CBC (VIII)]” gave an MIC ([1]; 48 hr) of 25 µg/mL, an MIC ([1]; 72 hr) of 50 µg/mL and an MIC ([2]; 48 hr) of 100 µg/mL. The MIC ([2]; 72 hr) was 100 µg/mL, the MIC [3] was 12.5 µg/mL and 25 µg/mL and the MIC ([4]; 48 hr) was 50 µg/mL. It also gave an MIC ([4]; 72 hr) of 100 µg/mL.

In the case of “2-methyl-2(4'-methyl-pentyl)-5-hydroxy-7-methyl chroman [CBC (V)]”, the “inhibition of carrageenan-induced rat paw edema” value ([5]; 60 mg/kg i.p.) was 53%, the “inhibition of carrageenan-induced rat paw edema” value ([5]; 120 mg/kg i.p.) was 63% and the “inhibition of carrageenan-induced rat paw edema” value ([5]; 240 mg/kg i.p.) was 92%. For the same molecule, the “agar well diffusion result in words” value [6] was “No growth”, the MIC ([2]; 48 hr) was 6.25 µg/mL and 12.5 µg/mL and the MIC ([2]; 72 hr) was 12.5 µg/mL. The MIC [7] was 3.12 µg/mL, the “width of inhibition zone” value ([8]; 24 hr) was 4. mm and the “width of inhibition zone” value ([8]; 48 hr) was 3. mm. The MIC [3] was 3.12 µg/mL, the “width of inhibition zone” value ([9]; 24 hr) was 16.0 mm and the “width of inhibition zone” value ([9]; 48 hr) was 9.0 mm. For the same molecule, the “width of inhibition zone” value ([10]; 24 hr) was 5. mm, the “width of inhibition zone” value ([10]; 48 hr) was 5. mm and the “width of inhibition zone” value ([11]; 48 hr) was 3. mm. The “width of inhibition zone” value ([11]; 72 hr) was 3. mm, the “width of inhibition zone” value ([12]; 24 hr) was 25. mm and the “width of inhibition zone” value ([12]; 48 hr) was 25. mm. For the same molecule, the “width of inhibition zone” value ([13]; 24 hr) was 25. mm, the “width of inhibition zone” value ([13]; 48 hr) was 25. mm and the “width of inhibition zone” value ([14]; 48 hr) was 22. mm. The “width of inhibition zone” value ([14]; 72 hr) was 22. mm, the MIC ([15]; 24 hr) was 3.12 µg/mL and 1.56 µg/mL and the MIC ([15]; 48 hr) was 3.12 µg/mL and 1.56 µg/mL. For the same molecule, the “width of inhibition zone” value ([16]; 48 hr) was 3.0 mm and the “width of inhibition zone” value ([16]; 72 hr) was 3.0 mm.

With `C[C@@H]1[C@H](O)[C@@H](C)/C=C/C=C/C=C/C=C/C=C/C=C/C=C/[C@H](O[C@@H]2O[C@H](C)[C@@H](O)[C@H](N)[C@@H]2O)C[C@@H]2O[C@](O)(C[C@@H](O)C[C@@H](O)[C@H](O)CC[C@@H](O)C[C@@H](O)CC(=O)O[C@H]1C)C[C@H](O)[C@H]2C(=O)O` [Amphotericin B, reference compound] the “width of inhibition zone” value ([6]; 48 hr) was 4. mm, the “width of inhibition zone” value ([6]; 72 hr) was 4. mm and the “agar well diffusion result in words” value [6] was “No growth”. For the same molecule, the MIC ([1]; 48 hr) was 25.0 µg/mL (≈ 27.1 µM), the MIC ([1]; 72 hr) was 25.0 µg/mL and 50 µg/mL and the MIC ([1]; Trichophyton mentagrophytes, 72 h, read-out: MIC) was 25 µg/mL (≈ 27.1 µM). For the same molecule, the MIC ([4]; 72 hr) was 25 µg/mL (≈ 27.1 µM), the “width of inhibition zone” value ([11]; 48 hr) was 4. mm and 2. mm and the “width of inhibition zone” value ([14]; 48 hr) was 7. mm. For the same molecule, the “width of inhibition zone” value ([14]; 72 hr) was 8. mm and 5. mm and the “width of inhibition zone” value ([16]; 48 hr) was 7. mm and 5. mm.

For `CC(=O)Oc1ccccc1C(=O)O` [Aspirin, Acetylsalicylic Acid, reference compound], the inhibition at 250 µM ([17]; Table 8, read-out: inhibition of heat-induced erythrocyte hemolysis) was 21%, the inhibition at 250 µM ([17]; Table 9 Test 1 (20% RBC), read-out: percent inhibition of heat-induced erythrocyte hemolysis) was 21% and the inhibition at 500 µM ([17]; Table 9 Test 3 (20% RBC), 5.0 × 10^-4 M, read-out: percent inhibition of heat-induced erythrocyte hemolysis) was 40%. The inhibition at 500 µM ([17]; 5×10^-4 M, read-out: inhibition of heat-induced red cell hemolysis) was 40%.
